IC50 data for 62 molecules are collected here from patent publication US8008292B2, “Condensed benzamide compounds and inhibitors of vanilloid receptor subtype 1 (VR1) activity” (Japan Tobacco Inc., priority 2004, dated 2011).

Counter-ions that a name gives are not always drawn.

T1 sequence (Q8NER1 whole entry): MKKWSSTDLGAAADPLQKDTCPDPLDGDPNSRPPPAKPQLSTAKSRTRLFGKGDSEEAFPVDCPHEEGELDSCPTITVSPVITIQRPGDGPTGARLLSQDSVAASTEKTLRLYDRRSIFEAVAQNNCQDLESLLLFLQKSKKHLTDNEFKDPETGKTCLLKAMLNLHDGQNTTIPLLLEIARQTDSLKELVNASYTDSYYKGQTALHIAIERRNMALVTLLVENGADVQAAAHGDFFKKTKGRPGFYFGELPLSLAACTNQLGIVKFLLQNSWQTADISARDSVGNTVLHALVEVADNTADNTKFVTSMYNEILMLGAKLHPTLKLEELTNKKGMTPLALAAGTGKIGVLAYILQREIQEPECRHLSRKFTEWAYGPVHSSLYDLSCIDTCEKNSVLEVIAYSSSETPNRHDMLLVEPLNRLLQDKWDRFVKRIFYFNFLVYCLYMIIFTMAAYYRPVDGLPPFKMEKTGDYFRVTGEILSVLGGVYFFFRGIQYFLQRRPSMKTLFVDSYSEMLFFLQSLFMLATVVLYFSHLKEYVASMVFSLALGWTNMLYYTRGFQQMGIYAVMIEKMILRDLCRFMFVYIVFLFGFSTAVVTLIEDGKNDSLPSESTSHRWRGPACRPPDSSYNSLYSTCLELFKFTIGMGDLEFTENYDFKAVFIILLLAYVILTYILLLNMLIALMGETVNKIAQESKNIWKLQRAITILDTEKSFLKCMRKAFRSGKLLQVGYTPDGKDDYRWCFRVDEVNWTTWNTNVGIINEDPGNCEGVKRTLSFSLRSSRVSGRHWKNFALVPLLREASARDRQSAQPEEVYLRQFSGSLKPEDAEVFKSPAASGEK

The test has as its target T1, human VR1 (Homo sapiens, UniProt Q8NER1).
T1 construct: expressed in transfected cells
Kind of test: Inhibition of Ca2+ entry in cells caused by proton, in rat glioma (C6BU1) cells stably expressing human VR1 (Fura 2 fluorescence). The conditions noted are these: inhibition of proton-induced Ca2+ entry. The format is cell-based. An outline of the steps:
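Fura 2-loaded C6BU1 cells in 20 mM MES buffer pH 6.8 with added Ca2+ were preincubated 10 min with compound (final 1 μM to 0.1 nM, 1% DMSO). Proton stimulation brought pH to 5.5. Fluorescence rise was measured, and IC50 was derived from % inhibition versus DMSO control.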
For `CC(O)C1COc2c(C(=O)Nc3ccc(OC(F)(F)F)cc3)cccc2N1c1ncccc1Cl` (centres unmarked) [Example 4-56], the IC50 was < 100 nM.

`CC(C)(C)c1ccc(NC(=O)c2cccc3c2OCCN3c2cnccn2)cc1` [Example 5-1, N-(4-tert-butylphenyl)-4-(pyrazine-2-yl)-3,4-dihydro-2H-benzo[1,4]oxazine-8-carboxamide] yielded an IC50 of 100 to 1000 nM.

The molecule `O=C(O)c1cnc(N2CCOc3c(C(=O)Nc4ccc(OC(F)(F)F)cc4)cccc32)c(Cl)c1` [Example 1-196] had a half-inhibitory concentration (IC50) of 100 to 1000 nM.

In the case of `Cc1ccc(N2CCOc3c(C(=O)Nc4ccc(OCC(C)(C)O)cc4)cccc32)nc1` [Example 1-155], the 50% inhibitory concentration (IC50) was < 100 nM.

Turning to `CCCOc1ccc(NC(=O)c2cccc3c2OCCN3c2ccc(C)cn2)cc1` [Example 1-084], the IC50 was < 100 nM.

Consider `Cc1ccc(N2CCOc3c(C(=O)Nc4ccc5c(c4)N(C)CCC5)cccc32)nc1` [Example 1-162], for which the IC50 is < 100 nM.

Take `O=C(Nc1ccc(OC(F)(F)F)c(Cl)c1)c1cccc2c1OC[C@H](CO)N2c1ncccc1Cl` [Example 4-11]: the IC50 is < 100 nM.

For the molecule `CN(C)c1ccc(NC(=O)c2cccc3c2OCCN3c2ncccc2Cl)cc1C(F)(F)F` [Example 1-054], the IC50 is < 100 nM.

Regarding `COc1cnc(N2c3cccc(C(=O)Nc4ccc(C(F)(F)F)cc4)c3OC[C@@H]2CO)c(Cl)c1` [Example 4-25], the IC50 is < 100 nM.

Consider `CNc1ccc(N2CCOc3c(C(=O)Nc4ccc(OC(F)(F)F)cc4)cccc32)nc1` [Example 1-197], for which the 50% inhibitory concentration (IC50) was < 100 nM.

Consider `Cc1ccc(N2c3cccc(C(=O)Nc4ccc(Br)c(F)c4)c3OC[C@@H]2CO)nc1` [Example 4-51], for which the concentration for half-maximal inhibition (IC50) is < 100 nM.

`O=C(Nc1ccc(Br)cc1)c1cccc2c1OCCN2c1ncc(CO)cc1Cl` [Example 2-42]: the IC50 was < 100 nM.

As for `CC(C)(C)c1ccc(NC(=O)c2cccc3c2OCCN3c2ccc(C(=O)O)cn2)cc1` [Example 1-133], the half-maximal inhibitory concentration (IC50) is 100 to 1000 nM.

For `CC(C)Oc1ccc(NC(=O)c2cccc3c2OC[C@H](CO)N3c2ncccc2Cl)cc1F` [Example 4-09], the IC50 is < 100 nM.

As for `O=C(Nc1ccc(C(O)(C(F)(F)F)C(F)(F)F)cc1)c1cccc2c1OCCN2c1ncc(CO)cc1Cl` [Example 2-37], the concentration for half-maximal inhibition (IC50) was < 100 nM.

For `Cc1ccc(N2CCOc3c(C(=O)N[C@H]4CC[C@H](COCC(C)C)CC4)cccc32)nc1` [Example 1-189], the IC50 is < 100 nM.

`O=C(Nc1ccc(C(F)(F)F)cc1)c1cccc2c1OC[C@H](CO)N2c1ccccc1Cl` [Example 7-05]: the IC50 is < 100 nM.

Consider `Cc1ccc(N2CCOc3c(C(=O)Nc4ccc(F)c(F)c4)cccc32)nc1` [Example 1-158], for which the IC50 is < 100 nM.

`CC(C)(C)c1ccc(NC(=O)c2cc(Cl)cc3c2OCCN3c2ncccc2Cl)cc1` [Example 1-020]: the half-maximal inhibitory concentration (IC50) was < 100 nM.

In turn, `CC(C)(C)c1ccc(NC(=O)c2cccc3c2OCCN3c2cccnc2)cc1` [Example 1-061] gave an IC50 of 100 to 1000 nM.

For the molecule `Cc1cccnc1N1c2cccc(C(=O)Nc3ccc(OC(F)(F)F)cc3)c2OC[C@@H]1CO` [Example 4-41], the half-maximal inhibitory concentration (IC50) was < 100 nM.

On to `CC(C)COc1cccc(NC(=O)c2cccc3c2OCCN3c2ncccc2Cl)c1` [Example 1-045], for which the 50% inhibitory concentration (IC50) was < 100 nM.

In turn, `CNC(=O)c1cc(NC(=O)c2cccc3c2OCCN3c2ccc(C)cn2)ccc1OCC(C)C` [Example 1-076] gave an IC50 of 100 to 1000 nM.

With `O=C(Nc1ccc(Br)c(Cl)c1)c1cccc2c1OCCN2c1ncc(CO)cc1Cl` [Example 2-17], the half-maximal inhibitory concentration (IC50) was < 100 nM.

With `CCOc1ccc(NC(=O)c2cccc3c2OCCN3c2ncccc2Cl)cc1` [Example 1-094], the concentration for half-maximal inhibition (IC50) is < 100 nM.

As to `O=C(Nc1ccc2c(c1)OC(F)(F)C(F)(F)O2)c1cccc2c1OCCN2c1ncc(CO)cc1Cl` [Example 2-38], the IC50 was < 100 nM.

For the molecule `Cc1ccc(N2CCOc3c(C(=O)NCCc4ccccc4)cccc32)nc1` [Example 1-124], the IC50 is < 100 nM.

`CCOc1ccc(NC(=O)c2cccc3c2OC[C@H](CO)N3c2ncccc2Cl)cc1F` [Example 4-23]: the IC50 was < 100 nM.

Take `Cc1ccc(N2CCOc3c(C(=O)N[C@H]4CC[C@H](OCc5ccccc5)CC4)cccc32)nc1` [Example 1-190]: the half-inhibitory concentration (IC50) lay in the range of 100 to 1000 nM.

Turning to `Cc1ccc(N2CCOc3c(C(=O)N[C@H]4CC[C@H](COC(C)C)CC4)cccc32)nc1` [Example 1-183], the half-inhibitory concentration (IC50) fell in the range of 100 to 1000 nM.

For `Cc1ccc(N2c3cccc(C(=O)Nc4ccc(OC(F)(F)F)c(Cl)c4)c3OC[C@@H]2CO)nc1` [Example 4-31], the half-inhibitory concentration (IC50) is < 100 nM.

`CCC(C)(O)c1ccc(NC(=O)c2cccc3c2OCCN3c2ncccc2Cl)cc1` (centres unmarked) [Example 1-041, 4-(3-chloropyridin-2-yl)-N-[4-(1-hydroxy-1-methyl)propyl]phenyl-3,4-dihydro-2H-benzo[1,4]oxazine-8-carboxamide]: the half-maximal inhibitory concentration (IC50) is 100 to 1000 nM.

Take `Cc1cccnc1N1c2cccc(C(=O)Nc3ccc(OC(C)(C)C)c(F)c3)c2OC[C@@H]1CO` [Example 4-43]: the IC50 is < 100 nM.

`CC(C)OC1CCN(c2ccc(NC(=O)c3cccc4c3OCCN4c3ncccc3Cl)cc2F)CC1` [Example 1-103]: the half-maximal inhibitory concentration (IC50) is < 100 nM.

In turn, `CCOc1ccc(N2CCOc3c(C(=O)Nc4ccc(OC(F)(F)F)cc4)cccc32)nc1` [Example 1-198] displayed a 50% inhibitory concentration (IC50) of 100 to 1000 nM.

Consider `O=C(Nc1ccc(C(F)(F)F)cc1)c1cccc2c1OCCN2c1ccc(Cl)nn1` [Example 5-4, 4-(6-chloropyridazine-3-yl)-N-(4-trifluoromethylphenyl)-3,4-dihydro-2H-benzo[1,4]oxazine-8-carboxamide], for which the IC50 is < 100 nM.

As to `Cc1ccc(N2CCOc3c(C(=O)Nc4ccc(N(C)C)c(F)c4)cccc32)nc1` [Example 1-163], the IC50 was < 100 nM.

In the case of `CCOC(=O)C1CCN(c2ccc(NC(=O)c3cccc4c3OCCN4c3ccc(C)cn3)cc2F)CC1` [Example 1-167], the IC50 was < 100 nM.

In the case of `Cc1cnc(N2CCOc3c(C(=O)Nc4ccc(OC(F)(F)F)cc4)cccc32)s1` [Example 5-6, 4-(5-methylthiazol-2-yl)-N-(4-trifluoromethoxyphenyl)-3,4-dihydro-2H-benzo[1,4]oxazine-8-carboxamide], the IC50 is < 100 nM.

Take `Cc1cnc(N2c3cccc(C(=O)Nc4ccc(OC(F)(F)F)cc4)c3OC[C@@H]2CO)o1` [Example 6-11, (S)-3-hydroxymethyl-4-(5-methyloxazol-2-yl)-N-(4-trifluoromethoxyphenyl)-3,4-dihydro-2H-benzo[1,4]oxazine-8-carboxamide]: the IC50 was < 100 nM.

As to `O=C(Nc1cc(Cl)cc(Cl)c1)c1cccc2c1OCCN2c1ncc(CO)cc1Cl` [Example 2-43], the IC50 is < 100 nM.

Take `CC(C)Oc1ccc(NC(=O)c2cccc3c2OCCN3c2ncc(CO)cc2Cl)cc1F` [Example 2-34]: the half-maximal inhibitory concentration (IC50) was < 100 nM.

For `COc1cnc(N2CCOc3c(C(=O)Nc4ccc(C(F)(F)F)cc4)cccc32)c(Cl)c1` [Example 1-145], the 50% inhibitory concentration (IC50) was < 100 nM.

With `COC1CCN(c2ccc(NC(=O)c3cccc4c3OCCN4c3ccc(Cl)cn3)cc2F)CC1` [Example 1-122], the IC50 is < 100 nM.

As to `Cc1cnc(N2c3cccc(C(=O)Nc4ccc(OCC(C)C)c(F)c4)c3OC[C@@H]2CO)s1` [Example 6-6], the half-maximal inhibitory concentration (IC50) is < 100 nM.

Take `COCCOc1cc(NC(=O)c2cccc3c2OCCN3c2ccc(C)cn2)ccc1C` [Example 1-089]: the half-maximal inhibitory concentration (IC50) was < 100 nM.

As to `Cc1cnc(N2c3cccc(C(=O)Nc4ccc(Cl)c(Cl)c4)c3OC[C@@H]2CO)s1` [Example 6-3, (S)-N-(3,4-dichlorophenyl)-3-hydroxymethyl-4-(5-methylthiazol-2-yl)-3,4-dihydro-2H-benzo[1,4]oxazine-8-carboxamide hydrochloride], the IC50 was < 100 nM.

As for `COCC1CCN(c2ccc(NC(=O)c3cccc4c3OCCN4c3ccc(C)cn3)cc2F)CC1` [Example 1-071], the half-inhibitory concentration (IC50) is < 100 nM.

As to `CC(C)(C)ON1CCC(NC(=O)c2cccc3c2OCCN3c2ncccc2Cl)CC1` [Example 1-043], the IC50 was 100 to 1000 nM.

The molecule `O=C(Nc1ccc(OC(F)(F)F)cc1)c1cccc2c1OCCN2c1ncccc1OCc1ccccn1` [Example 1-216] gave a concentration for half-maximal inhibition (IC50) of 100 to 1000 nM.

Molecule `O=C(Nc1ccc(OC(F)(F)F)cc1)c1cccc2c1OC(CO)CN2c1ncccc1Cl` (centres unmarked) [Example 1-231] showed a half-inhibitory concentration (IC50) of 100 to 1000 nM.

As for `O=C(Nc1ccc(Cl)cc1)c1cccc2c1OCCN2c1ccc(Cl)cn1` [Example 1-121], the IC50 is < 100 nM.

Take `COc1ccc(NC(=O)c2cccc3c2OC[C@H](CO)N3c2ncccc2Cl)cc1C(F)(F)F` [Example 4-24]: the IC50 is < 100 nM.

Take `Cc1cnc(N2c3cccc(C(=O)Nc4ccc(F)c(C(F)(F)F)c4)c3OC[C@@H]2CO)s1` [Example 6-8]: the half-maximal inhibitory concentration (IC50) is < 100 nM.

On to `Cc1ccc(N2CCOc3c(C(=O)Nc4ccc(OCC(C)C)c(C(N)=O)c4)cccc32)nc1` [Example 1-075], for which the concentration for half-maximal inhibition (IC50) was in the range of 100 to 1000 nM.

For `CC(C)Oc1cccc(NC(=O)c2cccc3c2OCCN3c2ncccc2Cl)c1` [Example 1-044], the IC50 was < 100 nM.

`Cc1cccnc1N1CCOc2c(C(=O)Nc3ccc(C(C)(C)C)cc3)cccc21` [Example 1-047]: the half-inhibitory concentration (IC50) was < 100 nM.

As for `O=C(Nc1ccc(C(F)(F)F)nc1)c1cccc2c1OCCN2c1ncc(CO)cc1Cl` [Example 2-16], the half-maximal inhibitory concentration (IC50) was < 100 nM.

For the molecule `O=C(Nc1cnc(Cl)c(Cl)c1)c1cccc2c1OCCN2c1ncc(CO)cc1Cl` [Example 2-20], the concentration for half-maximal inhibition (IC50) is < 100 nM.

Take `O=C(Nc1ccc(C(F)(F)F)cc1)c1cccc2c1OCCN2c1ncc(CO)cc1Cl` [Example 2-05, N-(4-trifluoromethylphenyl)-4-(3-chloro-5-hydroxymethylpyridin-2-yl)-3,4-dihydro-2H-benzo[1,4]oxazine-8-carboxamide]: the 50% inhibitory concentration (IC50) was < 100 nM.

For the molecule `COCCN(c1ccc(NC(=O)c2cccc3c2OCCN3c2ccc(C)cn2)cc1F)C(C)C` [Example 1-164], the IC50 is < 100 nM.

As for `Cc1ccc(N2CCOc3c(C(=O)Nc4ccc(N5CCOCC5)c(F)c4)cccc32)nc1` [Example 1-157], the IC50 is < 100 nM.

For orientation: IC50 means the concentration that inhibits the measured activity by half.
